# Measurements taken from patent US6673565B2 (priority 1999, dated 2004).
# Assays:
# Butyrylcholinesterase = Butyrylcholinesterase (Homo sapiens, UniProt P06276); format: biochemical
# Urease = Urease (Canavalia ensiformis, UniProt P07374); format: biochemical
# Sequence of Urease (P07374 whole entry, looked up): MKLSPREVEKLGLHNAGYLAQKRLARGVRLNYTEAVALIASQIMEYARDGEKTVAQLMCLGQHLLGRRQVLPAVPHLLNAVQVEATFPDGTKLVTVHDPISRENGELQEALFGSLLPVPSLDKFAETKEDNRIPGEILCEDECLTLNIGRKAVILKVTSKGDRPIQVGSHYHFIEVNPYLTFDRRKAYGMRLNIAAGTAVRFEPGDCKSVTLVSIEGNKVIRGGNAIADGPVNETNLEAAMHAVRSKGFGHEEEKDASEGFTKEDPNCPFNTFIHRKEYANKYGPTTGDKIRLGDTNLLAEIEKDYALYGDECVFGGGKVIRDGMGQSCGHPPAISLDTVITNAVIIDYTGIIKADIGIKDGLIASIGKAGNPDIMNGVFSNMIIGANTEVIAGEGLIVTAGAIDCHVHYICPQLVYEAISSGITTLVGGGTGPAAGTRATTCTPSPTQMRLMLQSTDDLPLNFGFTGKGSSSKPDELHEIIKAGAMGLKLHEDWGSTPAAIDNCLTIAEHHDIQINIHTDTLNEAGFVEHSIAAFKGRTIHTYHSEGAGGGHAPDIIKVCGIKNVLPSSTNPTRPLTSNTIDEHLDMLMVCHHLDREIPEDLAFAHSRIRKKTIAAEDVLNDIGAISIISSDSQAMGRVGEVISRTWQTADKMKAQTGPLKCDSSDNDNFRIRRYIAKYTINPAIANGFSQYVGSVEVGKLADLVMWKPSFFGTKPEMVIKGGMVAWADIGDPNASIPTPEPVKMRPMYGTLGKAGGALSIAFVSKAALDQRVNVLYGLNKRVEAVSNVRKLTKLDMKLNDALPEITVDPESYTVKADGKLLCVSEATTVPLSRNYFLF
# Sequence of Butyrylcholinesterase (P06276 29-602): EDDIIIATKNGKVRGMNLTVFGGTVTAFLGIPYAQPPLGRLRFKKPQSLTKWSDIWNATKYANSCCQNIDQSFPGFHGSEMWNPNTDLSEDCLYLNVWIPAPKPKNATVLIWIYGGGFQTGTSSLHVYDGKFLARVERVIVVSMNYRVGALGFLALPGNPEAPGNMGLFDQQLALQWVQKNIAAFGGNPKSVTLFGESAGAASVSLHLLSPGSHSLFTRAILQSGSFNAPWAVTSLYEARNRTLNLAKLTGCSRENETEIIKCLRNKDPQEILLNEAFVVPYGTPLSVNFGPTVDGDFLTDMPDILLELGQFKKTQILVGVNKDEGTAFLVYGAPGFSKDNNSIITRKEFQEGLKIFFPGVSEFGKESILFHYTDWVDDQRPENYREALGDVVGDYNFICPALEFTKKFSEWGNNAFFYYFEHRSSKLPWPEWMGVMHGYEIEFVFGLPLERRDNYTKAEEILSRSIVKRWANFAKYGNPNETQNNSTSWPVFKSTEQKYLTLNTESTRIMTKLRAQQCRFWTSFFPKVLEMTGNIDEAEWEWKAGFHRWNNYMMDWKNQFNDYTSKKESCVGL
smiles,measurement,setting,value
"CCOP(=O)(OCC)Oc1ccc([N+](=O)[O-])cc1 [paraoxon, Paraoxon]",Inhibition of BChE polymer used to wipe paraoxon-containing beakers,Butyrylcholinesterase,complete inhibition
NC(N)=O [urea],Color change of urease/m-cresol purple polymer disks,Urease,transition from yellow to blue
